Experiments:
[1] = tested on: SK-N-BE(2) cells; experiment: Live cell microscopy apoptosis assay (caspase 3/7 dye)
Method: To accurately measure cellular apoptosis over time, the present inventors performed live cell microscopy experiments with cells loaded with both DNA and caspase 3/7 dyes, which enables continuous and precise quantification of apoptosis at the single cell level.
Cell viability for SK-N-BE(2) cells was conducted using a fluorometric cell viability assay using Resazurin (PromoKine) according to the manufacturer's instructions. […] Dyes were added at the time of seeding, 18-24 hours prior to performing experiments.
Experiments were performed using an ImageXpress MicroXL microscope and a 10× objective, where images were acquired for each well at the indicated time-points using DAPI and FITC filter sets. […] Percent apoptotic cells was calculated from the sum of apoptotic cell pixels divided by the sum of all cell pixels for each field of view.

[2] = tested on: SKNBE2 neuroblastoma cells; experiment: Toxicity profiling, percent death with and without cholesterol challenge; assay type: cell-based, human; settings: 24 hrs of exposure; high doses
Excerpt: FIG. 15. Toxicity profiling.

[3] = tested on: HEK293T cells; experiment: Live cell microscopy apoptosis assay (caspase 3/7 dye); assay type: cell-based; settings: DHA 75 μM with MBCD 300 μM or CBD 6.25 μM
Method: In order to gain further insight into the sensitivity of CBD treated cells to 25-hydroxy cholesterol, the present inventors repeated the apoptosis assay in SK-N-BE(2) and HEK293T cells with combinatorial 25-hydroxy cholesterol/CBD stimulation using sublethal doses of 25-hydroxy cholesterol (15 μg/ml) and CBD (20 μM) in the presence or absence of either the chemical inhibitor of cholesterol transport (U18666A, 10 μM) or cholesterol storage (VULM 1457, 5 μM).
FRAP experiments reveal that DHA and CBD have opposing effects on the lateral diffusion of fluorescently labelled cholesterol in synthetic membranes. Although this implies that CBD increases lipid order and that DHA decreases lipid order, it remains unclear how relevant these biophysical effects of CBD and DHA are to cellular physiology. As a result, the present inventors sought to determine whether CBD and DHA have opposing effects on cells. To this end, the present inventors repeated the live cell apoptosis assays in cells exposed to increasing doses of DHA to determine how DHA affects cell death.

[4] = tested on: SK-N-BE(2) cells; experiment: Live cell confocal microscopy of lipid droplets (NBD-cholesterol, nile red); assay type: cell-based, human; settings: CBD 20 μM, 24 hrs
Excerpt: Thus, the present inventors found multiple lines of evidence consistent with activation of cholesterol esterification in the CBD response. To further support the claim that CBD elicits cholesterol storage, the present inventors used live cell confocal microscopy of SK-N-BE(2) cells stained with both fluorescent cholesterol (22-NBD-Cholesterol) and the lipid droplet dye nile red (FIG. 4E) to quantify the number and size of lipid droplets. […] Altogether, these combined experiments highlight that the CBD response in cells includes activation of cholesterol esterification and storage.
SK-N-BE(2) cells were seeded into fibronectin coated glass bottom 96 well plates (Matriplate) at a cell density of 40,000 cells/well using low background imaging media (FluoroBrite DMEM with all supplements described, above). At the time of seeding, nile red (ThermoFisher) was added at a final concentration of 100 ng/mL and NBD-cholesterol (ThermoFisher) was added at a final concentration of 10 μg/mL. […] Lipid droplets and their sizes were detected and quantified using the ImageJ Find Particles Function, and data was subsequently processed using Microsoft Excel. Error depicted represents the standard deviation calculated from three biological replicates. […]

[5] = tested on: endoplasmic reticulum in SKNBE2 and HaCaT keratinocyte cells; experiment: Confocal microscopy of rhodamine-glibenclamide staining, ER structure; assay type: cell-based, human
Method: FIG. 16. Rhodamine-glibenclamide staining in live cells is visualized by confocal microscopy in live cells. ER structure is perturbed after 2 hours of exposure to CBD and o-1602, but not for o-1821 exposure.

C=C(C)[C@@H]1CCC(C)=C[C@H]1c1c(O)cc(CCCCC)cc1O [CBD, cannabidiol]
effect on DHA induced apoptosis ([1]; DHA 75 μM with MBCD 300 μM or CBD 6.25 μM): completely cancel the apoptotic effects
sensitivity of CBD exposed cells to 25-hydroxy cholesterol induced apoptosis ([1]; increasing 25-hydroxy cholesterol, constant CBD): clear dose dependent sensitivity
toxicity in cells challenged with a high cholesterol environment [2]: toxic
effect on DHA induced apoptosis [3]: completely cancel the apoptotic effects
average abundance of lipid droplets [4]: increases
lipid droplet size [4]: does not affect
alteration of the structure of the endoplasmic reticulum ([5]; SKNBE2 and HaCaT keratinocyte cells): dramatically alters the structure of the endoplasmic reticulum
ER structure ([5]; after 2 hours of exposure, live cells): perturbed

From patent US20210244686A1, “Novel Systems And Methods For The Therapeutic Use of Cannabinoids or Cannabinoid Analogs to Increase The Lipid Order of Cholesterol Containing Cell Membranes” (The Regents of the University of Colorado a body corporate, priority 2018, published 2021)
